Laboratory results from patent US20070173488A1, “Pyrazolothiazole Protein Kinase Modulators” (SGX Pharmaceuticals, Inc., priority 2005, published 2007).

Key:
T315I Abl = target: T1, T315I Abl (Mus musculus, UniProt P00520, T315I); experiment: cAbl Luminescence-based Enzyme Assay (Kinase-Glo); format: biochemical
T1 construct: The c-Abl T315I KD (kinase domain) was purified as follows; made in house; host or cells: E. coli BL21(DE3) pSA0145 (lambda phosphatase co-expression) or BL21(DE3)Codon+RIL
T1 sequence (P00520 242-493 T315I limits assumed): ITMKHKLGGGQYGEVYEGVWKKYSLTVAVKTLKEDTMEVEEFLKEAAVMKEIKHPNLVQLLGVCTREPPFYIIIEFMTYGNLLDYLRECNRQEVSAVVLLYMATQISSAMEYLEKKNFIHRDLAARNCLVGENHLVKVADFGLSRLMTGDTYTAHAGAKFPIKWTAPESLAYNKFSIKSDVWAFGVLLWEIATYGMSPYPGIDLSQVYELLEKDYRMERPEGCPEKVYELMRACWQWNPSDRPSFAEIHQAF
Text: Homogeneous luminescence-based inhibitor screening assays were developed for c-Abl, MET, AurA, and PDK1 kinases (among others). Each of these assays made use of an ATP depletion assay (Kinase-Glo™, Promega Corporation, Madison, Wis.) to quantitate kinase activity. The Kinase-Glo™ format uses a thermostable luciferase to generate luminescent signal from ATP remaining in solution following the kinase reaction. The luminescent signal is inversely correlated with the amount of kinase activity.
Dose response was analyzed using the equation: y=min+{(max−min)/(1 +10^[compound]-logIC50)}, where y is the observed initial slope, max=the slope in the absence of inhibitor, min=the slope at infinite inhibitor, and the IC50 is the [compound] that corresponds to ½ the total observed amplitude (Amplitude=max−min).
An open-reading frame for c-Abl was amplified from a Mus musculus (mouse) cDNA library prepared from freshly harvested mouse liver using a commercially available kit (Invitrogen) by PCR using the following primers: […]
The c-Abl T315I KD (kinase domain) was purified as follows. Cells were collected by centrifugation, lysed in diluted cracking buffer (50 mM Tris HCl, pH 7.5, 500 mM KCl, 0.1% Tween 20, 20 mM Imidazole, with sonication, and centrifuged to remove cell debris. The soluble fraction was purified over an IMAC column charged with nickel (Pharmacia, Uppsala, Sweden), and eluted under native conditions with a gradient of 20 mM to 500 mM imidazole in 50 mM Tris, pH7.8, 500 mM NaCl, 10 mM methionine, 10% glycerol. The protein was then further purified by gel filtration using a Superdex 75 preparative grade column equilibrated in GF5 buffer (10 mM HEPES, pH7.5, 10 mM methionine, 500 mM NaCl, 5 mM DTT, and 10% glycerol). Fractions containing the purified c-Abl T315I KD kinase domain were pooled. The protein obtained was 98% pure as judged by electrophoresis on SDS polyacrylamide gels. […] The protein was then dephosphorylated with Shrimp Alkaline Phosphatase (MBI Fermentas, Burlington, Canada) under the following conditions: 100U Shrimp Alkaline Phosphatase/mg of c-Abl T315I KD, 100 mM MgCl2, and 250 mM additional NaCl. The reaction was run overnight at 23° C. The protein was determined to be unphosphorylated by Mass spectroscopic analysis. Any precipitate was spun out and the soluble fraction was separated from reactants by gel filtration using a Superdex 75 preparative grade column equilibrated in GF4 buffer (10 mM HEPES, pH7.5, 10 mM methionine, 150 mM NaCl, 5 mM DTT, and 10% glycerol).
cAbl Luminescence-based Enzyme Assay
Materials: Abl substrate peptide=EAIYAAPFAKKK-OH (Biopeptide, San Diego, Calif.), ATP (Sigma Cat#A-3377, FW=551), HEPES buffer, pH 7.5, Bovine serum albumin (BSA) (Roche 92423420), MgCl2, Staurosporine (Streptomyces sp. Sigma Cat#85660-1MG), white Costar 384-well flat -bottom plate (VWR Cat#29444-088), Abl kinase (see below), Kinase-Glo™ (Promega Cat#V6712).
Stock Solutions: 10 mM Abl substrate peptide (13.4 mg/ml in miliQH2O) stored at −20° C.; 100 mM HEPES buffer, pH 7.5 (5 ml 1M stock+45ml miliQH2O); 10 mM ATP (5.51 mg/ml in dH2O) stored at −20° C. (diluted 50 μl into total of 10 ml miliQH2O daily =50 μM ATP working stock); 1% BSA (1 g BSA in 100 ml 0.1 M HEPES, pH 7.5, stored at −20° C.), 100 μM MgCl2; 200 μM Staurosporine, 2× Kinase-Glo™ reagent (made fresh or stored at −20° C.).
Standard Assay Setup for 384-well format (20 μl kinase reaction, 40 μl detection reaction): 10 mM MgCl2; 100 μM Abl substrate peptide; 0.1% BSA; 1 μl test compound (in DMSO); 0.4 μg/ml Abl kinase domain; 10 μM ATP; 100 mM HEPES buffer. Positive controls contained DMSO with no test compound. Negative controls contained 10 μM staurosporine.
The kinase reactions were initiated at time t=0 by the addition of ATP. Kinase reactions were incubated at 21° C. for 30 min, then 20 μl of Kinase-Glo™ reagent were added to each well to quench the kinase reaction and initiate the luminescence reaction. […]

HCT116 cells = experiment: 96-well XTT cell survival assay (HCT116 cells); format: cell-based; conditions: Homo sapiens, HCT-116, 72 hours
Description: HCT116 cells were maintained in McCoy's 5a Medium supplemented with 10% fetal bovine serum (FBS) 2 mM L-Glutamine and 100 units penicillin/100 μg streptomycin, at 37° C. in 5% CO2.
Compounds were tested in the following assays in duplicate.
96-well XTT assay (HCT116 cells): Cells were grown in growth media containing various concentrations of compounds (duplicates) on a 96-well flat bottom plate for 72 hours at 37° C. in 5% CO2. The starting cell number was 5000 cells per well and volume was 120 μl. At the end of the 72-hour incubation, 40 μl of XTT labeling mixture (50:1 solution of sodium 3′-[1-(phenylaminocarbonyl)-3,4-tetrazolium]-bis (4-methoxy-6-nitro) benzene sulfonic acid hydrate and Electron-coupling reagent: PMS (N-methyl dibenzopyrazine methyl sulfate) were added to each well of the plate. After an additional 2-6 hours of incubation at 37° C., the absorbance reading at 650 nm was measured with a spectrophotometer.

CDK4/CycD1 = target: T2, CDK4/CycD1 (Homo sapiens, UniProt P11802); experiment: 33PanQuinase Activity Assay (ProQuinase GmbH); format: biochemical
T2 construct: purchased ProQuinase GmbH, Freiburg, Germany (assay service)
Text: ^33PanQuinase Activity Assay (ProQuinase GmbH) and SelectScreen™ Kinase Profiling (Invitrogen Corp.)
^33PanQuinase Activity Assay is a proprietary, radioisotopic protein kinase assay developed by ProQuinase GmbH, Freiburg, Germany. Details on assay conditions can be found on the company's website.

T2 sequence (P11802 whole entry): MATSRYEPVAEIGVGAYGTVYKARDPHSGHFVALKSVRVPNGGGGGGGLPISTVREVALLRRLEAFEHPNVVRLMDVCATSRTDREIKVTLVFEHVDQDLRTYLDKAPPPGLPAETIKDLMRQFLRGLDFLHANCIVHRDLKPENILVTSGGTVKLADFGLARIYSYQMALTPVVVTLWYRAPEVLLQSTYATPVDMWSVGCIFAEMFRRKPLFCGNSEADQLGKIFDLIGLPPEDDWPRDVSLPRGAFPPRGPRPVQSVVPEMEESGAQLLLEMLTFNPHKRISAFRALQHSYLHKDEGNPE
T2 sequence (P24385 whole entry partner): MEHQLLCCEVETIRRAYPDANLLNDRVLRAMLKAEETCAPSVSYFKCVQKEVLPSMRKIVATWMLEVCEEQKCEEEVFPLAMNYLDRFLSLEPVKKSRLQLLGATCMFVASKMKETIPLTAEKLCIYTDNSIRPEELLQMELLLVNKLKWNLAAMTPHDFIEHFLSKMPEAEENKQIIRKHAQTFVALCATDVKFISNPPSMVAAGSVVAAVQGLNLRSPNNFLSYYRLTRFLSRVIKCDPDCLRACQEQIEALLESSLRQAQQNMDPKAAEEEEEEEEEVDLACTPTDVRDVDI

IC50 (T315I Abl) [nM]	IC50 (CDK4/CycD1) [nM]	SMILES	IC50 (HCT116 cells) [nM]
< 100	< 100	O=C(Nc1nc2[nH]nc(-n3cncc3-c3c(Cl)cccc3Cl)c2s1)C1CC1 [Cyclopropanecarboxylic acid {3-[5-(2,6-dichloro-phenyl)-imidazol-1-yl]-1H-pyrazolo[3,4-d]thiazol-5-yl}-amide]	100 to 1000
	100 to 1000	O=C(Nc1cc[nH]n1)Nc1nc2[nH]nc(-n3cncc3-c3ccccc3Cl)c2s1 [1-{3-[5-(2-Chloro-phenyl)-imidazol-1-yl]-1H-pyrazolo[3,4-d]thiazol-5-yl}-3-(1H-pyrazol-3-yl)-urea]	100 to 1000
< 100	< 100	O=C(Nc1nc2[nH]nc(-n3cncc3-c3cccc(F)c3F)c2s1)C1CC1 [Cyclopropanecarboxylic acid {3-[5-(2,3-difluoro-phenyl)-imidazol-1-yl]-1H-pyrazolo[3,4-d]thiazol-5-yl}-amide]	100 to 1000
< 100		O=C(Nc1nc2[nH]nc(-n3cncc3-c3c(Cl)ccc(Cl)c3Cl)c2s1)C1CC1 [Cyclopropanecarboxylic acid {3-[5-(2,3,6-trichloro-phenyl)-imidazol-1-yl]-1H-pyrazolo[3,4-d]thiazol-5-yl}-amide]	1000 to 10000

Second part, the compound before the results:

SMILES	IC50 (T315I Abl) [nM]	IC50 (CDK4/CycD1) [nM]	IC50 (HCT116 cells) [nM]
O=C(Nc1nc2[nH]nc(-n3cncc3-c3ccccn3)c2s1)C1CC1 [Cyclopropanecarboxylic acid [3-(5-pyridin-2-yl-imidazol-1-yl)-1H-pyrazolo[3,4-d]thiazol-5-yl]-amide]	< 100		100 to 1000
NC(=O)COc1ccc(-c2cncn2-c2n[nH]c3nc(NC(=O)C4CC4)sc23)c(Cl)c1 [Cyclopropanecarboxylic acid {3-[5-(4-carbamoylmethoxy-2-chloro-phenyl)-imidazol-1-yl]-1H-pyrazolo[3,4-d]thiazol-5-yl}-amide]	< 100	< 100	
O=C(Nc1nc2[nH]nc(-n3cncc3-c3ccccc3)c2s1)C1CC1 [Cyclopropanecarboxylic acid [3-(5-phenyl-imidazol-1-yl)-1H-pyrazolo[3,4-d]thiazol-5-yl]-amide]	100 to 1000		100 to 1000
O=C(Nc1nc2[nH]nc(-n3cncc3-c3cc(Cl)cc(Cl)c3Cl)c2s1)C1CC1 [Cyclopropanecarboxylic acid {3-[5-(2,3,5-trichloro-phenyl)-imidazol-1-yl]-1H-pyrazolo[3,4-d]thiazol-5-yl}-amide]		1000 to 10000	
O=C(Nc1nc2[nH]nc(-n3cncc3-c3ccccc3Cl)c2s1)C1CC1 [Cyclopropanecarboxylic acid {3-[5-(2-chloro-phenyl)-imidazol-1-yl]-1H-pyrazolo[3,4-d]thiazol-5-yl}-amide]	< 100	< 100	100 to 1000
O=C(Nc1nc2[nH]nc(-n3cncc3-c3ccc4ccccc4c3)c2s1)C1CC1 [Cyclopropanecarboxylic acid [3-(5-naphthalen-2-yl-imidazol-1-yl)-1H-pyrazolo[3,4-d]thiazol-5-yl]-amide]	1000 to 10000		
